Results published in BindingDB's records for PubMed 20126400 (University of Oklahoma, 2010).

How the values were obtained:
Test in all cases: Ray2010 Assay 74
[1] = target: 5-hydroxytryptamine receptor 2A (Homo sapiens, UniProt P28223)
Description: (§1) Table S2 shows raw Ki data for the current study combined with data collected from the literature for the ten additional compounds.

D(1A) dopamine receptor = D(1A) dopamine receptor (Homo sapiens, UniProt P21728)
Description: as §1

[2] = target: 5-hydroxytryptamine receptor 6 (Homo sapiens, UniProt P50406)
5-hydroxytryptamine receptor 6, sequence (P50406 whole entry): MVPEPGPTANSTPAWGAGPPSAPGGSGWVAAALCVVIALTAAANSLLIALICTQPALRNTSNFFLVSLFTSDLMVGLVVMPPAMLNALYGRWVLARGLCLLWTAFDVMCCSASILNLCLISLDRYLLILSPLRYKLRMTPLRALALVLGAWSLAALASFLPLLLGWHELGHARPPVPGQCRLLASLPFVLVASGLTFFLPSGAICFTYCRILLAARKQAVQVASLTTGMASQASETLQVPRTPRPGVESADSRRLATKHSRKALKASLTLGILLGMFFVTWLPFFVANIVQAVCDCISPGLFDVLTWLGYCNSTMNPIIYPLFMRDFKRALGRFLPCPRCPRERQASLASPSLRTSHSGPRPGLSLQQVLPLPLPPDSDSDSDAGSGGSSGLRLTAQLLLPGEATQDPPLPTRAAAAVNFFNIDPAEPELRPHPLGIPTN
Description: as §1

[3] = target: T1, 5-hydroxytryptamine receptor 1A (Homo sapiens, UniProt P08908)
T1 sequence (P08908 whole entry): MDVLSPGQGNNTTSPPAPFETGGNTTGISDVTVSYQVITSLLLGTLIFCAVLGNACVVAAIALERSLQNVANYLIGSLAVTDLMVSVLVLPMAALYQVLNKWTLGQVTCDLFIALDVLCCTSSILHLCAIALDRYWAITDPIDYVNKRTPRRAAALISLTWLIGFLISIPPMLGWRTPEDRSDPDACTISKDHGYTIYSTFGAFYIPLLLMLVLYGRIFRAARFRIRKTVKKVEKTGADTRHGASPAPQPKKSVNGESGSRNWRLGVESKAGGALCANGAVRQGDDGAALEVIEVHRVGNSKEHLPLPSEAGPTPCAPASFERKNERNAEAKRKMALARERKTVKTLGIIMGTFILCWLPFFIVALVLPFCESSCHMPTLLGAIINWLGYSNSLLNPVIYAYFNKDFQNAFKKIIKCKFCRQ
Description: as §1

[4] = target: Glutamate receptor ionotropic, NMDA 2A (Homo sapiens, UniProt Q12879)
Glutamate receptor ionotropic, NMDA 2A, sequence (Q12879 whole entry): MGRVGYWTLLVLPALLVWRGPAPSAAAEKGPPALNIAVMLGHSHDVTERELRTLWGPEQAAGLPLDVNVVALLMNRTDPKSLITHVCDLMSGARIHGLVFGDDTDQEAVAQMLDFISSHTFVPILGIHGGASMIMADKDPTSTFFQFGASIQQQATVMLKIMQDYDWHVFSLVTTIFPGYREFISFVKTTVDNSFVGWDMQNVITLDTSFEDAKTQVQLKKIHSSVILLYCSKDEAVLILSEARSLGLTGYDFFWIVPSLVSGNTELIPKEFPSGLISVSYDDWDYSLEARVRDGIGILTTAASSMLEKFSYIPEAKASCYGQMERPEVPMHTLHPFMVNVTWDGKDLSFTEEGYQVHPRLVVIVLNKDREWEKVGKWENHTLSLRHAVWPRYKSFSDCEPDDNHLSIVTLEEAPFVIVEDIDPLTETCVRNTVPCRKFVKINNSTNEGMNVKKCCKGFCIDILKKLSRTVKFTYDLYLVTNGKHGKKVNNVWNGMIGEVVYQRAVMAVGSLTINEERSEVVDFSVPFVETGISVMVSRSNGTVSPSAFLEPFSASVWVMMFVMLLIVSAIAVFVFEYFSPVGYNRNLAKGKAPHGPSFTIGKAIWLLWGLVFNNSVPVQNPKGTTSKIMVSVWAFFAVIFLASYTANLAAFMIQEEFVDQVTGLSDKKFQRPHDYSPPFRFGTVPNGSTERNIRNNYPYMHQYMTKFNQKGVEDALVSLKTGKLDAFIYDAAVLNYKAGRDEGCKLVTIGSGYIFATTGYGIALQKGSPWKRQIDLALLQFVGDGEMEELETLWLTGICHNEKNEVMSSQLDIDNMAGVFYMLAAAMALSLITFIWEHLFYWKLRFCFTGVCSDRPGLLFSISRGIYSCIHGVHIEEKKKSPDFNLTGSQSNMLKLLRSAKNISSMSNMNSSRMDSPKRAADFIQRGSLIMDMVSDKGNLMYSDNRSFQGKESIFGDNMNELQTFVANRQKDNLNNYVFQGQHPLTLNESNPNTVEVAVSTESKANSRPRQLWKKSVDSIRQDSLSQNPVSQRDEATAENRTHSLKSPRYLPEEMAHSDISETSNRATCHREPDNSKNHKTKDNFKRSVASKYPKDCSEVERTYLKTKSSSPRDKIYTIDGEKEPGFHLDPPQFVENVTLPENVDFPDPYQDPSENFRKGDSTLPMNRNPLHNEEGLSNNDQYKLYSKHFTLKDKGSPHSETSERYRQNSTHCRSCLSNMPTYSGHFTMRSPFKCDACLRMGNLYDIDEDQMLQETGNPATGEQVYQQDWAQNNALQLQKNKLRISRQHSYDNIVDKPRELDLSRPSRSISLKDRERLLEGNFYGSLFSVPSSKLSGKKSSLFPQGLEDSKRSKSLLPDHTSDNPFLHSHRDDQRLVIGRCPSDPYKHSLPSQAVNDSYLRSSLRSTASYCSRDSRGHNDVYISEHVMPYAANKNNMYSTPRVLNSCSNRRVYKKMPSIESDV
Description: as §1

[5] = target: T2, Gamma-aminobutyric acid receptor subunit alpha-1 (Homo sapiens, UniProt P14867)
T2 sequence (P14867 whole entry): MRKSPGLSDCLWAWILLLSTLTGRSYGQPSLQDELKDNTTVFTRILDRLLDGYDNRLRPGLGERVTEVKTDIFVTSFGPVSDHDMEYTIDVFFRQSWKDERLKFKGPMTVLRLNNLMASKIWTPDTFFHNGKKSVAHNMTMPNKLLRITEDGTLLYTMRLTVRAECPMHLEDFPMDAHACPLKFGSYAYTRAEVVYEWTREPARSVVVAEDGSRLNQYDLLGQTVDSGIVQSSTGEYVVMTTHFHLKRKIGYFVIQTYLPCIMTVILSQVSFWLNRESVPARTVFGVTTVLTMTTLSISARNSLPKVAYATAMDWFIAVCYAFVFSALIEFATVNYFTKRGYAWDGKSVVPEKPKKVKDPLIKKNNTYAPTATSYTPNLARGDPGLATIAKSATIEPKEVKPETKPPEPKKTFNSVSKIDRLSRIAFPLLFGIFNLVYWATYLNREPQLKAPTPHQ
Description: as §1

[6] = target: Sodium-dependent dopamine transporter (Homo sapiens, UniProt Q01959)
Description: as §1

[7] = target: 5-hydroxytryptamine receptor 1E (Homo sapiens, UniProt P28566)
Description: as §1

[8] = target: Sodium-dependent serotonin transporter (Homo sapiens, UniProt P31645)
Sodium-dependent serotonin transporter, sequence (P31645 whole entry): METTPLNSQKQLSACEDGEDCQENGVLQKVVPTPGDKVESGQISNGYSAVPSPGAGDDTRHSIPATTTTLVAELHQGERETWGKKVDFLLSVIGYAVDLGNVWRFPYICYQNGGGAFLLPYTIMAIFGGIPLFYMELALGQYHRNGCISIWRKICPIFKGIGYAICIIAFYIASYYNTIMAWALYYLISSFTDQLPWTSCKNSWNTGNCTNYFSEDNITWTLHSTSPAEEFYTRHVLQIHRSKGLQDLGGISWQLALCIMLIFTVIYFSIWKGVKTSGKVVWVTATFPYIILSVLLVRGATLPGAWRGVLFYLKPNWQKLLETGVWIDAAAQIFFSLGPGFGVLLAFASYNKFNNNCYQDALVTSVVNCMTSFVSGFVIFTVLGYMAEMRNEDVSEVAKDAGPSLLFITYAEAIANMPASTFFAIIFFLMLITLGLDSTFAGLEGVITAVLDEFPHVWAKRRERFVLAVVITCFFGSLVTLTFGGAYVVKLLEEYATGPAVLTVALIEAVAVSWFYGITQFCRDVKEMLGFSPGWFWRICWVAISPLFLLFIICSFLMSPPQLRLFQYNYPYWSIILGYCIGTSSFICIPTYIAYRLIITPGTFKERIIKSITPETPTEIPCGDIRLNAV
Description: as §1

[9] = target: T3, Alpha-1A adrenergic receptor (Homo sapiens, UniProt P35348)
T3 sequence (P35348 whole entry): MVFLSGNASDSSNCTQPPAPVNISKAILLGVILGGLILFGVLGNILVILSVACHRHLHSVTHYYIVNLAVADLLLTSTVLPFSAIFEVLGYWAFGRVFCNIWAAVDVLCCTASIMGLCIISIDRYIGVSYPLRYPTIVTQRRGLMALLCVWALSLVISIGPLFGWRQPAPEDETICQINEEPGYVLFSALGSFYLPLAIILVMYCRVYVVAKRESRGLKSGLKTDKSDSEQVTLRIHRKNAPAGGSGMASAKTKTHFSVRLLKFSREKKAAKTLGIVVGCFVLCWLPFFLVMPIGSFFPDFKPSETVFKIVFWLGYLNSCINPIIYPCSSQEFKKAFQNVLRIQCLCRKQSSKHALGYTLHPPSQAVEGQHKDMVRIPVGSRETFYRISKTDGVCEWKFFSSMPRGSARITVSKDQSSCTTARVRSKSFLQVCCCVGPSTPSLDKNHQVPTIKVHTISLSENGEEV
Description: as §1

[10] = target: Sodium-dependent noradrenaline transporter (Homo sapiens, UniProt P23975)
Sodium-dependent noradrenaline transporter, sequence (P23975 whole entry): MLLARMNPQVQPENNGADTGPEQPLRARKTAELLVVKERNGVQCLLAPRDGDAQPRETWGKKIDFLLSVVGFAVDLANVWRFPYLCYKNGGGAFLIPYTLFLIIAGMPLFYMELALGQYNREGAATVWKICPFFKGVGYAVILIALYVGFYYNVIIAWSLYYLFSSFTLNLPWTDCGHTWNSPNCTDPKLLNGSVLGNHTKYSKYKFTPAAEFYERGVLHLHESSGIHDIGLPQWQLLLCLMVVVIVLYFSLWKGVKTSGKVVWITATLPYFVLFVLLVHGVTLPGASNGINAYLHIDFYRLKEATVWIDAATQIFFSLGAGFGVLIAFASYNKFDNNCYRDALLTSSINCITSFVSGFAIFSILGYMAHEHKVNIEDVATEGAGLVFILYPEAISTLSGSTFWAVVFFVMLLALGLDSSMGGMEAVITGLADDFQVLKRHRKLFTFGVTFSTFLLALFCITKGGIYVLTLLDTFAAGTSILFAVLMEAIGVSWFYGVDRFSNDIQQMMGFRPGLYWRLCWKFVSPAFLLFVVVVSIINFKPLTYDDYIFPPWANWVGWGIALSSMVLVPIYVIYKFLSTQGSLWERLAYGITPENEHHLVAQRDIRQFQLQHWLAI
Description: as §1

[11] = target: 5-hydroxytryptamine receptor 5A (Homo sapiens, UniProt P47898)
5-hydroxytryptamine receptor 5A, sequence (P47898 whole entry): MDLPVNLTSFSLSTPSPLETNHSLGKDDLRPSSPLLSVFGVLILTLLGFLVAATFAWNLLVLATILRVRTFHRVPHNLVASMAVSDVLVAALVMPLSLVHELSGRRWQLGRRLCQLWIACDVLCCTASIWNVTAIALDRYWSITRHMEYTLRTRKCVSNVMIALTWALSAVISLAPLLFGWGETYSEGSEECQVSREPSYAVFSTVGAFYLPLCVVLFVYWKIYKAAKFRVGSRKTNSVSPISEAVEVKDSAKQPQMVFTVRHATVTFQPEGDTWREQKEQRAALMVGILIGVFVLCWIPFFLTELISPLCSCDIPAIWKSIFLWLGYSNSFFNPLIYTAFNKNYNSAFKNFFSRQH
Description: as §1

D(2) dopamine receptor = D(2) dopamine receptor (Homo sapiens, UniProt P14416)
D(2) dopamine receptor, sequence (P14416 whole entry): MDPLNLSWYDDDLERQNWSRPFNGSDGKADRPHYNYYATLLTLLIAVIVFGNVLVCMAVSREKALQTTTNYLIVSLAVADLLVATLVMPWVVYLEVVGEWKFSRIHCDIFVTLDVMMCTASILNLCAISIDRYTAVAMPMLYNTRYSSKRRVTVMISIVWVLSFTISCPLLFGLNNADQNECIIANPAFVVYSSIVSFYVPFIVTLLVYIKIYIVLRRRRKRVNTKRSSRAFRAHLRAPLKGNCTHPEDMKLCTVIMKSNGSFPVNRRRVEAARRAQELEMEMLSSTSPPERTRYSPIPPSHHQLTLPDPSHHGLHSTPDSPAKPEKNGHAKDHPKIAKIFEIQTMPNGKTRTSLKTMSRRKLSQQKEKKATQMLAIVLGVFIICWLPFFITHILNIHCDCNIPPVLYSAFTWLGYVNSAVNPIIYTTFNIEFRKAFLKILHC
Description: as §1

[12] = target: T4, Alpha-2A adrenergic receptor (Homo sapiens, UniProt P08913)
T4 sequence (P08913 whole entry): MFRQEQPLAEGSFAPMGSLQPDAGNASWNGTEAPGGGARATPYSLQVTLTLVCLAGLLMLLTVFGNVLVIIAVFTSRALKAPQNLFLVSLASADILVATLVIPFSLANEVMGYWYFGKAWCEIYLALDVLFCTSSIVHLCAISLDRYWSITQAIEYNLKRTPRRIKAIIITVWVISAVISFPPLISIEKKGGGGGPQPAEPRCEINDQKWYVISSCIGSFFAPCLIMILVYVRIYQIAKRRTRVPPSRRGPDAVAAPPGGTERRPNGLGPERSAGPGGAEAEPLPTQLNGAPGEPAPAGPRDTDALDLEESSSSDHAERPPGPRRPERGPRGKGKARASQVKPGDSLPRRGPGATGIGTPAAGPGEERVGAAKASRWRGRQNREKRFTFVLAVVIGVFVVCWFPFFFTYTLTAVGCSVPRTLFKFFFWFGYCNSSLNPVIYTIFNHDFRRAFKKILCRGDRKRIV
Description: as §1

Histamine H2 receptor = Histamine H2 receptor (Homo sapiens, UniProt P25021)
Histamine H2 receptor, sequence (P25021 whole entry): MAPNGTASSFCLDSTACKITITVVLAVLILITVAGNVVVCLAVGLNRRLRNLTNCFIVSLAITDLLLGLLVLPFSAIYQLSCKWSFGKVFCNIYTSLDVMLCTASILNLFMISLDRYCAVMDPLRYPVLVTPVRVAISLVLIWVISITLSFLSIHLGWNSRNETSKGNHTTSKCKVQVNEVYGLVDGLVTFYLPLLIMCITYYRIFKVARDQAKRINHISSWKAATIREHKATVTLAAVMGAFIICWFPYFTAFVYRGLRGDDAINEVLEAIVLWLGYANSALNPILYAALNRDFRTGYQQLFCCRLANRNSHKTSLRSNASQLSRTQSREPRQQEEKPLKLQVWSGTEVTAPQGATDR
Description: as §1

D(1B) dopamine receptor = D(1B) dopamine receptor (Homo sapiens, UniProt P21918)
Description: as §1

Histamine H4 receptor = Histamine H4 receptor (Homo sapiens, UniProt Q9H3N8)
Description: as §1

5-hydroxytryptamine receptor 2A, sequence (P28223 whole entry): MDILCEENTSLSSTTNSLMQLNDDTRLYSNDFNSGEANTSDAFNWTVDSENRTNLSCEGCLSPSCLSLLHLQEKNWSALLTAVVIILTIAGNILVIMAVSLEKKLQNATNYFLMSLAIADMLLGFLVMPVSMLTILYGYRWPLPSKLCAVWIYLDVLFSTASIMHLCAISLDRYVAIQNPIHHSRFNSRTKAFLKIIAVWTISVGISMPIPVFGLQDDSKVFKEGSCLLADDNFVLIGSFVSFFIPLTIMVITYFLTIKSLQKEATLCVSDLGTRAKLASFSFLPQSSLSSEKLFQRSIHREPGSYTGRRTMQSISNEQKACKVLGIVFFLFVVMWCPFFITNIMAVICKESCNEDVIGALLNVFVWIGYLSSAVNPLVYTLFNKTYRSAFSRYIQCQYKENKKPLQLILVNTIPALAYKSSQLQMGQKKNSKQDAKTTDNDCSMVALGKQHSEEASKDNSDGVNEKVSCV

SMILES | Ki [1] [µM] | Ki (D(1A) dopamine receptor) [µM] | Ki [2] [µM] | Ki [3] [µM] | Ki [4] [µM] | Ki [5] [µM] | Ki [6] [µM] | Ki [7] [µM] | Ki [8] [µM] | Ki [9] [µM] | Ki [10] [µM] | Ki [11] [µM] | Ki (D(2) dopamine receptor) [µM] | Ki [12] [µM] | Ki (Histamine H2 receptor) [µM] | Ki (D(1B) dopamine receptor) [µM] | Ki (Histamine H4 receptor) [µM]
C[C@@H]1C[C@H](C)N1C(=O)C1C=C2c3cccc4[nH]cc(c34)C[C@H]2N(C)C1 (stereo partly drawn) [cis-2a] | 0.0297 | 0.232 | 0.0129 | 0.0023 | > 10 | > 10 | > 10 | 0.195 | > 10 | 0.529 | > 10 | 0.0164 | 0.0491 | – | – | – | –
COc1ccc2[nH]cc(CCN(C)C)c2c1 [3-(2-DIMETHYLAMINOETHYL)-5-METHOXYINDOLE] | – | 0.0795 | – | – | – | > 10 | > 10 | – | 2.03 | > 10 | 2.86 | – | 3.56 | 1.89 | > 10 | > 10 | –
CNC(C)Cc1ccc2c(c1)OCO2 (stereo not drawn) [mdma] | > 10 | > 10 | > 10 | > 10 | > 10 | > 10 | > 10 | > 10 | > 10 | > 10 | > 10 | > 10 | > 10 | 2.53 | > 10 | > 10 | –
COc1cc(OC)c(OC)cc1CC(C)N (stereo not drawn) [(+/-)1-Methyl-2-(2,4,5-trimethoxy-phenyl)-ethylamine] | 0.584 | > 10 | > 10 | > 10 | – | – | > 10 | > 10 | > 10 | > 10 | > 10 | > 10 | > 10 | > 10 | > 10 | > 10 | > 10
CN(C)CCc1c[nH]c2cccc(O)c12 [4-hydroxy-N,N-dimethyltryptamine] | – | – | – | – | – | > 10 | > 10 | – | 0.852 | > 10 | > 10 | – | > 10 | – | > 10 | > 10 | > 10
CC(N)Cc1ccc2c(c1)OCO2 (stereo not drawn) | > 10 | > 10 | > 10 | 3.76 | – | > 10 | > 10 | > 10 | > 10 | > 10 | > 10 | > 10 | > 10 | 1.66 | > 10 | > 10 | > 10
CC[C@H]1C[C@@H]2C[C@H]3c4[nH]c5ccc(OC)cc5c4CCN(C2)[C@@H]13 | 14.1 | > 10 | – | > 10 | 2 | > 10 | 1.98 | – | – | – | – | – | > 10 | – | – | – | –
NCCc1c2c(c(Br)c3c1OCC3)OCC2 [2-(8-Bromo-2,3,6,7-tetrahydro-benzo[1,2-b;4,5-b']difuran-4-yl)-ethylamine] | 0.0116 | 4.96 | 0.15 | 0.147 | – | > 10 | > 10 | 0.11 | > 10 | > 10 | > 10 | > 10 | 6.84 | 0.145 | > 10 | > 10 | > 10
CN(C)CCc1c[nH]c2ccccc12 [2-(1H-indol-3-yl)-N,N-dimethylethanamine] | 2.32 | – | 0.487 | – | – | > 10 | > 10 | 0.456 | 3.74 | 1.75 | > 10 | 0.611 | > 10 | 1.56 | > 10 | > 10 | > 10
CCc1[nH]c2ccc(OC)cc2c1CCN(C)C [2-ethyl-5-methoxy-N,N-dimethyltryptamine] | > 10 | – | – | – | > 10 | – | > 10 | – | – | – | – | – | > 10 | – | – | – | > 10
COC(=O)[C@@H]1C[C@H](OC(C)=O)C(=O)[C@H]2[C@@]1(C)CC[C@H]1C(=O)O[C@H](c3ccoc3)C[C@]21C [2S,4aR,6a(R,7R,9S,10aS,10bR)-9-(acetyloxy)-2-(furan-3-yl)dodecahydro-6a,10b-dimethyl-4,10-dioxo-2H-naphtho[2,1-c]pyran-7-carboxylic acid methyl ester] | > 10 | > 10 | > 10 | > 10 | – | – | > 10 | > 10 | > 10 | > 10 | – | > 10 | > 10 | – | – | > 10 | –
CCSc1cc(OC)c(CC(C)N)cc1OC (stereo not drawn) [2-(4-Ethylsulfanyl-2,5-dimethoxy-phenyl)-1-methyl-ethylamine] | 0.0604 | > 10 | – | 1.67 | > 10 | > 10 | > 10 | – | 1.32 | > 10 | > 10 | > 10 | > 10 | 5.8 | > 10 | > 10 | > 10
CCN(CC)C(=O)[C@@H]1C=C2c3cccc4[nH]cc(c34)C[C@H]2N(C)C1 [[N-methyl-3H]LSD] | – | 0.177 | – | – | > 10 | > 10 | > 10 | – | > 10 | 1.13 | > 10 | – | 0.11 | – | – | – | –
COc1ccc2[nH]c(C)c(CCN(C)C)c2c1 [[2-(5-Methoxy-2-methyl-1H-indol-3-yl)-ethyl]-dimethyl-amine (C2H2O)] | > 10 | – | – | – | > 10 | – | > 10 | – | – | – | – | – | > 10 | – | – | – | > 10
C[C@@H]1C[C@@H](C)N1C(=O)C1C=C2c3cccc4[nH]cc(c34)C[C@H]2N(C)C1 (stereo partly drawn) [rr-2b] | 0.69 | 0.342 | 0.0605 | 0.0052 | > 10 | > 10 | > 10 | 0.138 | > 10 | 5.19 | > 10 | 0.0127 | 0.264 | – | – | – | –
